{
  "source": "patent US5567716A",
  "about": "“Trans and cis traumatic acid salts having cicatrizant activity associated to bacteriostatic, antiviral, antibiotic or antifungal activity” (priority 1992, dated 1996)",
  "key": {"herpetic keratitis": {"test_system": "herpetic keratitis", "details": "topic and systemic administration; cited from earlier work"}, "3T3 fibroblasts": {"test_system": "3T3 fibroblasts", "assay": "Cellular proliferation of 3T3 fibroblasts, neutral red colorimetry (1.1a)", "assay_type": "cell-based, Mice", "protocol": "Experiments on 3T3 fibroblasts\nMice 3T3 fibroblasts cultures sown at a 40.000/ml concentration on plates having 6 wells in a DMEM culture medium enriched with 10% calf serum are used. After 24 hours culture, the 90 prepared wells are divided in order to allow the analyses of the compounds of the invention, every compound to be tested being used respectively at a concentration of 0.1, 1 and 10 μg/ml by subsequent evaluations after 48 and 72 hours of incubation.\nHexadecyltrimethylammoniun (ETA) traumatare: solubilized in water and brought to the desired final concentrations of 0.1. 1 and 10 μg/ml by progressive dilutions;\nEthanolamine traumatate: solubilized in water and brought to the final concentrations of 0.1, 1 and 10 μg/ml by progressive dilutions;\nTraumatic acid: neutralized with sodium hydroxyde and solubilized in water, then brought to the final concentrations of 0.1, 1 and 10 μg/ml by progressive dilutions with the culture medium.\nThe compounds are added to the cells after 24 hours culture. The cells number is measured by colorimetry with the neutral red intravital stain after 24, 48, 72 hours of incubation."}, "experimental animal": {"test_system": "experimental animal", "details": "topical route; cited from earlier work"}, "man": {"test_system": "man", "details": "burns therapy; cited from earlier work"}, "[1]": {"test_system": "psoriatic patients or patients affected by acne, dermatitis seborrheic, neurodermatitis and itches", "details": "trachoma, herpetic keratitis, verruca; cited from earlier work"}, "Balb/C 3T3 fibroblasts": {"test_system": "Balb/C 3T3 fibroblasts", "assay": "Cell growth of Balb/C 3T3 fibroblasts, crystal violet colorimetry (1.1b)", "assay_type": "cell-based, Mouse", "details": "for cell growth t2/t1: 48 h/24 h, control 76.776", "protocol": "Mouse Balb/C 3T3 fibroblasts were grown in DMEM medium supplemented with penicillin (100 units/ml) and streptomycin (0.1 mg/ml). For experimental purposes, cells are routinely inoculated in […] diameter culture dishes (5000cells/dish) and cultured overnight.\nThe compounds to be tested are solubilized in DMEM+10%FCS and DMSO to obtain the final concentration of 10^-5 M, 10^-6 M e 10^-7 M in 0.05% DMSO.\nThe cells number is measured 4, 24 and 48 hours after seeding. The cell growth is evaluated as t2/t1 ratio (%)."}},
  "data": [
    {"smiles": "O=C(O)/C=C/CCCCCCCCC(=O)O", "note": "[traumatic acid, 10-dodecendioic]", "values": [
      {"measurement": "effect on herpetic keratitis model", "setting": "herpetic keratitis", "result": "effectiveness on an in vivo herpetic keratitis model both after topic and systemic administration"},
      {"measurement": "effect on cells proliferation", "setting": "3T3 fibroblasts; 0.1 μg/ml, in words", "result": "able to affect cells proliferation according to a not statistically significant trend"},
      {"measurement": "effect on cellular proliferation", "setting": "3T3 fibroblasts; 1 μg/ml, in words, ETA salt > ethanolamine salt = traumatic acid", "result": "able to increase cellular proliferation"},
      {"measurement": "cells numeration (colorimetric, neutral red)", "setting": "3T3 fibroblasts; 24 hours of incubation, 0.1 (head: μg/ml), control 0.579 ± 0.021", "result": "0.486 ± 0.029"},
      {"measurement": "cells numeration (colorimetric, neutral red)", "setting": "3T3 fibroblasts; 24 hours of incubation, 1.0 (head: μg/ml), control 0.579 ± 0.021", "result": "0.510 ± 0.008"},
      {"measurement": "cells numeration (colorimetric, neutral red)", "setting": "3T3 fibroblasts; 24 hours of incubation, 10.0 (head: μg/ml), control 0.579 ± 0.021", "result": "0.543 ± 0.019"},
      {"measurement": "cells numeration (colorimetric, neutral red)", "setting": "3T3 fibroblasts; 48 hours of incubation, 0.1 (head: μg/ml), control 1.334 ± 0.050", "result": "1.497 ± 0.087"},
      {"measurement": "cells numeration (colorimetric, neutral red)", "setting": "3T3 fibroblasts; 48 hours of incubation, 1.0 (head: μg/ml), control 1.334 ± 0.050", "result": "1.431 ± 0.047"},
      {"measurement": "cells numeration (colorimetric, neutral red)", "setting": "3T3 fibroblasts; 48 hours of incubation, 10.0 (head: μg/ml), control 1.334 ± 0.050, ** p < 0.01 significant reduction", "result": "1.442 ± 0.060"},
      {"measurement": "cells numeration (colorimetric, neutral red)", "setting": "3T3 fibroblasts; 72 hours of incubation, 0.1 (head: μg/ml), control 2.360 ± 0.125", "result": "2.492 ± 0.070"},
      {"measurement": "cells numeration (colorimetric, neutral red)", "setting": "3T3 fibroblasts; 72 hours of incubation, 1.0 (head: μg/ml), control 2.360 ± 0.125", "result": "2.349 ± 0.125"},
      {"measurement": "cells numeration (colorimetric, neutral red)", "setting": "3T3 fibroblasts; 72 hours of incubation, 10.0 (head: μg/ml), control 2.360 ± 0.125, ** p < 0.01 significant reduction", "result": "2.446 ± 0.128"},
      {"measurement": "time necessary for the cells to reach the confluence", "setting": "3T3 fibroblasts; side control experiment, ETA and ethanolamine salts > traumatic acid", "result": "reduce the time normally necessary for the cells to reach the confluence"},
      {"measurement": "reepithelializing and antiirritant action", "setting": "experimental animal", "result": "reepithelializing and antiirritant action"},
      {"measurement": "reepithelialization times", "setting": "man", "result": "reduces the reepithelialization times"},
      {"measurement": "clinical results", "setting": "[1]", "result": "Positive clinical results"},
      {"measurement": "Cell density", "setting": "Balb/C 3T3 fibroblasts; 4 h (t0), 10^-5M, control 0.300", "result": 0.478},
      {"measurement": "Cell density", "setting": "Balb/C 3T3 fibroblasts; 4 h (t0), 10^-6M, control 0.300", "result": 0.495},
      {"measurement": "Cell density", "setting": "Balb/C 3T3 fibroblasts; 4 h (t0), 10^-7M, control 0.300", "result": 0.459},
      {"measurement": "Cell density", "setting": "Balb/C 3T3 fibroblasts; 24 h (t1), 10^-5M, control 0.481", "result": 0.317},
      {"measurement": "Cell density", "setting": "Balb/C 3T3 fibroblasts; 24 h (t1), 10^-6M, control 0.481", "result": 0.320},
      {"measurement": "Cell density", "setting": "Balb/C 3T3 fibroblasts; 24 h (t1), 10^-7M, control 0.481", "result": 0.323},
      {"measurement": "Cell density", "setting": "Balb/C 3T3 fibroblasts; 48 h (t2), 10^-5M, control 0.849", "result": 0.657},
      {"measurement": "Cell density", "setting": "Balb/C 3T3 fibroblasts; 48 h (t2), 10^-6M, control 0.849", "result": 0.657},
      {"measurement": "Cell density", "setting": "Balb/C 3T3 fibroblasts; 48 h (t2), 10^-7M, control 0.849", "result": 0.740},
      {"measurement": "cell growth t2/t1", "setting": "Balb/C 3T3 fibroblasts; 10^-5M", "result": 112.273, "unit": "%"},
      {"measurement": "cell growth t2/t1", "setting": "Balb/C 3T3 fibroblasts; 10^-6M", "result": 95.638, "unit": "%"},
      {"measurement": "cell growth t2/t1", "setting": "Balb/C 3T3 fibroblasts; 10^-7M", "result": 135.554, "unit": "%"}
    ]}
  ]
}
